Laboratory results from ChEMBL document CHEMBL4138230, “New estrogen receptor antagonists. 3,20-Dihydroxy-19-norpregna-1,3,5(10)-trienes: Synthesis, molecular modeling, and biological evaluation” (Eur J Med Chem, 2018).
pIC50: −log10 of the molar value. Activity calls are given as the source filed them. No cut-off for these calls is given here.

Tests used:
MCF-10A = experiment: Growth inhibition of human MCF10A cells after 72 hrs by MTT assay; type: cell-based
[1] = biological target: T1, Estrogen receptor (Homo sapiens) (UniProt P03372); experiment: Antagonist activity at ERalpha in human MCF7 cells at 5 uM after 24 hrs by luciferase reporter gene assay relative to control; type: cell-based
T1 sequence (whole entry): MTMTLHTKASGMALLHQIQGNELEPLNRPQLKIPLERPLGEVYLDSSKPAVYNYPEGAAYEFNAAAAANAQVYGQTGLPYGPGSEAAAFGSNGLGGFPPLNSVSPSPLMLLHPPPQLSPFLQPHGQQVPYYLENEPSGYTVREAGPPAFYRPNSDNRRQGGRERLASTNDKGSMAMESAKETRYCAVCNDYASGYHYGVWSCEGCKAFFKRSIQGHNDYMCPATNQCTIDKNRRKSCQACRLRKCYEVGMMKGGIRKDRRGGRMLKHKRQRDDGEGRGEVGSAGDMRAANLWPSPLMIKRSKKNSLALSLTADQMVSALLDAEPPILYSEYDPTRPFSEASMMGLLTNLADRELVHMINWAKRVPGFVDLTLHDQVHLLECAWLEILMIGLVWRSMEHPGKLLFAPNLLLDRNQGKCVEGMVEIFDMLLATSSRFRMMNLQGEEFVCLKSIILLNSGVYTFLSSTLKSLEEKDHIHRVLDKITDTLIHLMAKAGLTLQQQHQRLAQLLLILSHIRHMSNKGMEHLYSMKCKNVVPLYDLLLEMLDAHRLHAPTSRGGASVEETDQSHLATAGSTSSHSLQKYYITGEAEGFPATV

MCF7 [2] = experiment: cells; settings: Homo sapiens, MCF7, 72 h
Description: Growth inhibition of human MCF7 cells after 72 hrs by MTT assay

[3] = Growth inhibition of human MCF10A cells at <25 uM after 72 hrs by MTT assay relative to control; type: cell-based, MCF-10A; settings: read-out: GI
MCF7 [4] = experiment: Growth inhibition of human MCF7 cells at <25 uM after 72 hrs by MTT assay relative to control; type: functional

| inhibition [1] | pIC50 (MCF7 [2]) | SMILES | pIC50 (MCF-10A) | inhibition at 72 h [3] | growth inhibition (GI) (MCF7 [4]) |
| --- | --- | --- | --- | --- | --- |
| Active | 6.68 | CC(O)[C@@]12C[C@@H]1C[C@H]1[C@@H]3CCc4cc(O)ccc4[C@H]3CC[C@@]12C (mixture of isomers) | 5.51 |  |  |
| Active | 4.80 | CC(=O)[C@@]12CCCC[C@@H]1C[C@H]1[C@@H]3CCc4cc(O)ccc4[C@H]3CC[C@@]12C |  | < 50% |  |
| Active | 5.34 | C[C@H](O)[C@@]12CCCC[C@@H]1C[C@H]1[C@@H]3CCc4cc(O)ccc4[C@H]3CC[C@@]12C | 4.64 |  |  |
| inactive |  | COc1ccc2c(c1)CC[C@@H]1[C@@H]2CC[C@@]2(C)[C@H]1C[C@H]1CCCC[C@]12C(C)O (mixture of isomers) |  |  |  |
| Active | 6.82 | C[C@@H](O)[C@H]1CC[C@H]2[C@@H]3CCc4cc(O)ccc4[C@H]3CC[C@]12C | 5.23 |  |  |
|  | 5.28 | CC/C(=C(\c1ccccc1)c1ccc(OCCN(C)C)cc1)c1ccccc1 [TAMOXIFEN] |  | < 50% |  |
| 70% | 5.17 | C[C@@H](O)[C@@]12CCCC[C@@H]1C[C@H]1[C@@H]3CCc4cc(O)ccc4[C@H]3CC[C@@]12C |  | < 50% |  |
| inactive |  | COc1ccc2c(c1)CC[C@@H]1[C@@H]2CC[C@@]2(C)[C@H]1C[C@H]1CCCC[C@]12C(C)=O |  | < 50% | <50% |
| inactive | 5.34 | CC(O)C1=CC[C@H]2[C@@H]3CCc4cc(O)ccc4[C@H]3CC[C@]12C (mixture of isomers) | 4.72 |  |  |

| SMILES | inhibition [1] | pIC50 (MCF7 [2]) | pIC50 (MCF-10A) | inhibition at 72 h [3] | growth inhibition (GI) (MCF7 [4]) |
| --- | --- | --- | --- | --- | --- |
| CC(=O)[C@H]1CC[C@H]2[C@@H]3CCc4cc(O)ccc4[C@H]3CC[C@]12C | inactive |  |  | < 50% | <50% |
